Data reported in patent US10588280B2, “Aided delivery of plant treatment agents” (Monsanto Technology LLC, priority 2014, dated 2020).

How the values were obtained:
[1] = system: haploid corn seedlings (SAM); assay: Example 2: single submerged centrifugation in colchicine, survival and doubling success; assay type: in vivo; conditions: for DE / Fert. Success / Initial Survival / Poll. Success: single submerged spin 50 g 10 min
Source text: Seeds of 5 different F1 hybrid-derived haploid commercial corn lines were randomly-selected and germinated in a greenhouse. The resulting seedlings were removed from soil or growth media at the V1-V2 growth stage and the soil or growth media rinsed from the plants with water. One sample of several random seedlings within each haploid line was placed in a centrifuge sample container without regard to how the shoot-root axis of the plants would be orientated with respect to the force of acceleration generated during the planned centrifugation. Next, a plant treatment solution comprising 1000 ppm colchicine was poured into the container such that the solution submerged each plants SAM, and then the sample centrifuged at 50 g for 10 min with the SAMs submerged in the plant treatment agent.
Following centrifugation, the plants were removed, rinsed with water to remove any remaining colchicine solution, and then recovered and tended in a light, humidity, and temperature-controlled greenhouse for several days before being transplanted to a nursery greenhouse.
The control sample received no centrifugation or colchicine exposure, but was otherwise handled identically as the treatment sample. During the subsequent growth of the plants, the initial survival, pollination success, fertilization success, and doubling efficiency (DE) were determined within each sample.

haploid corn seedlings = assay: Example 5: field transplanting survival after single or serial spin with colchicine; assay type: in vivo; conditions: for 3-wk Survival (field transplanting): 50 g
Method: Haploid corn seedlings derived from a cross between commercial inbred 01DKD2 and the inducer KHI1 or commercial inbred 83IDI1 and KHI1 were treated by either single spin or serial spin centrifugation methods and recovered in a light, moisture, and temperature controlled environment for approximately 15 hours. Plants were then transplanted into a field and tended for three weeks, after which plant survival rates were assessed (Table 5).

[2] = system: haploid seedlings derived from 91DUQ1 or 83IDI1 (SAM); assay: Example 9: serial centrifugation with colchicine and incubation between spins; assay type: in vivo, maize; conditions: submerged 100 g 3 min, unsubmerged 340 g 3 min, ear with at least four kernels
Source text: F1 hybrid-derived haploid seedlings derived from either female inbred line 91DUQ1 or male inbred line 83IDI1 were germinated in soil in a greenhouse in standard maize growing conditions and grown to the V1 growth stage (1 week after planting). Next, the seedlings were removed from the soil, rinsed with water to remove residual soil form the plants, and then divided into 4 samples comprising several seedlings of each germplasm per sample.
Each sample was then bundled in a PCS comprising an aluminum foil wrap and wooden rods for support, similar to that shown in FIG. 9. Once bundled in a PCS, each sample was contacted by a plant treatment solution comprising either 600 ppm or 800 ppm colchicine such that the SAM of each plant was entirely submerged, and then each sample was centrifuged at 100 g for 3 min with the SAMs submerged in the reserve doubling agent during centrifugation.
Following the submerged centrifugation, plants were removed from the centrifuge container and while some doubling solution from the first centrifugation remained clinging to the plants, the roots and bottom half of each stem were rinsed in water to remove any doubling agent from that end of the plant. Then each bundled sample was incubated in an enclosed, humid environment for one of the four incubation periods listed Table 8.
Following each respective incubation period, the bundled samples were removed from the humid enclosure and subjected to an unsubmerged centrifugation at 340 g for 3 min, wherein the only doubling solution that contacted the plants was that which remained on the plants from the previous submerged centrifugation, i.e. no additional doubling solution was added to the plants after the first centrifugation.
Following the second centrifugation, the plants were removed from the centrifugation container and rinsed with water to remove any remaining colchicine solution, and then recovered and tended in a light, humidity, and temperature-controlled greenhouse for several days before being transplanted to a nursery green house where they were tended under standard maize growing conditions until they grew to maturity and flowered.
Self-pollinations were attempted with each plant that survived the treatment to produce pollen and final doubling efficiencies were determined within each treatment. In this experiment, the doubling efficiency within each treatment sample was calculated by dividing the number of plants of each treatment sample that produced at least one ear comprising at least four kernels by the total number of plants subjected to that set of treatment conditions.

[3] = system: seedlings of inbred lines 83IDI1 or 91DUQ1; assay: Example 10: seedling survival after unsubmerged centrifugation for 3 or 180 min with colchicine; assay type: in vivo; conditions: 1250 ppm colchicine submerged 50 g 3 min, after one week
Method: Seedlings of one of two genetically diverse inbred lines (83IDI1 or 91DUQ1) were germinated in a greenhouse and removed from soil or growth media at the V1-V3 growth stage and rinsed with water to remove residual soil. All seedlings were then secured in PCSs comprising wraps and rods, like that shown in FIG. 9, and subjected to a submerged spin at 50 g in a liquid treatment solution comprising 1250 ppm colchicine for 3 min.
Following the first, submerged centrifugation, the plant treatment solution was decanted and the bundled seedlings were subjected to an unsubmerged centrifugation at 340 g for either 3 or 180 min.
Following the second centrifugation, the plants were removed from the centrifugation container and rinsed with water to remove any remaining colchicine solution, and then recovered and tended in a light, humidity, and temperature-controlled greenhouse for one week, then the number of plants surviving were counted to determine the survival rate within each treatment.

seedlings = conditions: cited from earlier work
[4] = Ave: of five lines, 1000 ppm colchicine
[5] = centrifuged samples, 1000 ppm colchicine, submerged 50 g 10 min, vs untreated controls
[6] = line F1004, 1000 ppm colchicine
[7] = line F1045, 1000 ppm colchicine
[8] = line F1095, 1000 ppm colchicine
[9] = line F1118, 1000 ppm colchicine
[10] = line F1900, 1000 ppm colchicine

In the case of `COc1cc2c(c(OC)c1OC)-c1ccc(OC)c(=O)cc1[C@@H](NC(C)=O)CC2` [colchicine], the DE [1, 4] is reported as 30%, the “Fert. Success” value [1, 4] is reported as 84% and the “Initial Survival” value [1, 4] is reported as 77%. For the same molecule, the “Poll. Success” value [1, 4] was 47%, the “drop in initial survival as compared to controls” value [1, 5] was 15% and the “improvement of overall average DE as compared to controls” value [1, 5] was 25%. For the same molecule, the DE [1, 6] was 50%, the “Fert. Success” value [1, 6] was 100% and the “Initial Survival” value [1, 6] was 100%. The “Poll. Success” value [1, 6] was 50%, the DE [1, 7] was 25% and the “Fert. Success” value [1, 7] was 100%. For the same molecule, the “Initial Survival” value [1, 7] was 58%, the “Poll. Success” value [1, 7] was 43% and the DE [1, 8] was 47%. The “Fert. Success” value [1, 8] was 78%, the “Initial Survival” value [1, 8] was 87% and the “Poll. Success” value [1, 8] was 69%. For the same molecule, the DE [1, 9] was 10%, the “Fert. Success” value [1, 9] was 100% and the “Initial Survival” value [1, 9] was 40%. The “Poll. Success” value [1, 9] was 25%, the DE [1, 10] was 10% and the “Fert. Success” value [1, 10] was 40%. The “Initial Survival” value [1, 10] was 100%, the “Poll. Success” value [1, 10] was 50% and the “individuals that produced pollen and silks” value ([1]; minimum over all five inbred samples receiving the experimental treatment) was “at least 25%”. For the same molecule, the “3 week post transplanting survival rate” value (haploid corn seedlings; either haploid line, regardless of colchicine concentration or second spin) was “higher than 80%”, the “3-wk Survival (field transplanting)” value (haploid corn seedlings; haploid parent 01DKD2, 1000 ppm colchicine, submerged 10 min, no second spin) was 94% and the “3-wk Survival (field transplanting)” value (haploid corn seedlings; haploid parent 01DKD2, 1250 ppm colchicine, submerged 3 min, unsubmerged 3 min, 335 g) was 89%. The “3-wk Survival (field transplanting)” value (haploid corn seedlings; haploid parent 83IDI1, 1000 ppm colchicine, submerged 10 min, no second spin) was 81%, the “3-wk Survival (field transplanting)” value (haploid corn seedlings; haploid parent 83IDI1, 1250 ppm colchicine, submerged 3 min, unsubmerged 3 min, 335 g) was 83% and the DE ([2]; 600 ppm colchicine, incubation 3 min) was 0.41. It also gave a DE ([2]; 600 ppm colchicine, incubation 3 hrs) of 0.78, a DE ([2]; 800 ppm colchicine, incubation 3 min) of 0.66 and a DE ([2]; 800 ppm colchicine, incubation 3 hrs) of 0.79. It also gave a Survival ([3]; pedigree 83IDI1, unsubmerged 340 g for 3 minutes) of 93%, a Survival ([3]; pedigree 83IDI1, unsubmerged 340 g for 180 minutes) of 94% and a Survival ([3]; pedigree 91DUQ1, unsubmerged 340 g for 3 minutes) of 95%. For the same molecule, the Survival ([3]; pedigree 91DUQ1, unsubmerged 340 g for 180 minutes) was 96%, the average success rate (seedlings; Eder and Chalyk (2002), procedure of Deimling et al.: 0.06% colchicine and DMSO, 12 hours, dark room, range of genotypes) was ~50% and the doubling rate (seedlings; Gayen et al. (1994): coleoptile tips removed, extended (6+ hours) soak, colchicine 0.1% or less) was 18.05%.
